# Measurements taken from PMC7913925, “Design and Evaluation of a Polypeptide That Mimics the Integrin Binding Site for EDA Fibronectin to Block Profibrotic Cell Activity” (International Journal of Molecular Sciences, 2021).
# Bridges are numbered along the chain shown (N, C = ends). Where no end group is shown, it is not given here.
# Legend:
# [1] = target: COL-RGD (RGD motif of collagen I) (Homo sapiens, UniProt P02452); experiment: Isothermal calorimetry, AF38Pep with COL-RGD; format: binding; details: 25 °C, pH 7
# Experimental: Custom designed peptides were resuspended in sterile-filtered HEPES buffered saline (140 mM NaCl, 1.5 mM Na2HPO4, 50 mM HEPES; pH 7). The larger EDA-FN binding peptide was diluted to 15 µM, degassed and added to the calorimetry chamber well. Three smaller test peptides (fibronectin EDA-peptide, FN-EDA; fibronectin RGD-peptide, FN-RGD and collagen I RGD-peptide, COL-RGD) were diluted to 300 µM, degassed and each was separately loaded into the calorimetry injection needle. The chamber well temperature was kept consistent at 25 °C. Blank buffer was used to replace either the well peptide or the injection needle peptide to account for background heat generation. Isothermal titration calorimetry was performed using a MicroCal iTC200 (Malvern Panalytical, Malvern, UK) and dissociation constant (KD) and association constant (KA) were calculated using the one set of sites model fitting (with number of binding sites assumed to be 1) in MicroCal Origin Software v8.5 (Malvern Panalytical).
# [2] = tested on: pro-MMP2; experiment: Gelatinase zymography pro-MMP2; format: cell-based, mouse; details: 48 h, TGF-β1 10 ng/mL, AF38Pep 10 µg/mL, conditioned medium
# Experimental: Conditioned media were collected from cells incubated with serum-free medium (SFM) alone, SFM containing 10 ng/mL TGF-β1, SFM containing 10 µg/mL AF38Pep, or SFM containing both 10 ng/mL TGF-β1 and 10 µg/mL AF38Pep. Conditioned medium was concentrated 10× by filtrating spin columns (Amicon Ultra-4 10 kDa MWCO, Merck Millipore) and protein was quantified by Micro BCA Protein Assay Kit (Thermo Fisher Scientific). A 1.5 mm thick 10% nonreducing acrylamide gel containing gelatin was prepared and 10 µg of sample in 5 × nonreducing buffer was loaded into the gel lanes. The gel was run at 100 V until the protein entered the stacking gel layer, then the voltage was increased to 150 V until the marker achieved resolved band separation. The gels were then washed twice for 30 min using wash buffer to remove SDS and renature the enzymes. Gels were further rinsed for 5–10 min in incubation buffer at 37 °C with agitation to activate the gelatinase reaction. Fresh incubation buffer was added, and the gels were incubated overnight at 37 °C. Gels were stained with staining solution containing Coomassie blue for between 30 min to 1 h, before rinsing with ddH2O and subsequent incubation with de-stain solution until bands could be observed. The gels were transferred to 2% acetic acid and rehydrated overnight for imaging by scanner.
# [3] = tested on: α-SMA in NIH/3T3 dermal fibroblasts; experiment: Immunocytochemistry α-SMA stress fibers; format: cell-based, mouse; details: 48 h, TGF-β1 10 ng/mL, AF38Pep 10 µg/mL
# Experimental: Cells were grown to 40% confluence in 8-well glass chamber slides (Nunc, Thermo Fisher Scientific), prior to growth arrest and treatment. Cells were washed with PBS before fixation in 4% paraformaldehyde for 10 min at room temperature. Next, cells were permeabilized with 0.1% (v/v) Triton X-100 in PBS for 10 min at room temperature. For visualization of ECM, cells were fixed with 100% ice-cold methanol for 8 min at −20 °C. Slides were washed with PBS and blocked with 1% goat serum (TBD Science, Tianjin, China) for 30 min before washing with 0.1% (w/v) BSA in PBS. Subsequently, slides were incubated with monoclonal mouse anti-α-SMA antibody (Sigma-Aldrich, 1:50) diluted in 0.1% BSA-PBS, overnight at 4 °C. After further wash steps, slides were incubated with goat anti-mouse IgG CF-488 secondary antibody (Abcam, 1:1000) in 0.1% BSA-PBS for 1 h at room temperature and under darkness. For F-actin visualization, after fixation and permeabilization; cells were incubated with phalloidin conjugated to FITC (Sigma-Aldrich) in 0.1% BSA-PBS, overnight at 4 °C. Cells were then mounted in DAPI Fluoromount-G (Thermo Fisher Scientific) and imaged using a Zeiss Axio Imager Z1 UV fluorescence microscope (Zeiss, Jena, Germany) and a Leica TCS SP5 laser scanning confocal microscope (Leica Biosystems, Baden-Württemberg, Germany).
# [4] = tested on: Tgfb1 mRNA in NIH/3T3 fibroblasts; experiment: qRT-PCR Tgfb1 mRNA; format: cell-based, mouse; details: 48 h, TGF-β1 10 ng/mL
# Experimental: (§1) Reverse transcription (RT) and real-time quantitative PCR (qRT-PCR) were used to assess ACTA2/Acta2, Col1a1, Col3a1, Fn1, Eda-Fn1, Mmp9, Tgfb1, Ltbp1, Hic5, and Mrtfa mRNA expressions. Custom PCR primers were designed in-house (Table 2) and then synthesized by BGI (Beijing, China). Cells were grown in 6-well culture plates and washed with phosphate buffered saline (PBS) before lysis with TRIzon Reagent (CWBio, Beijing, China) and total RNA purification according to the manufacturer’s protocol. Reverse transcription was carried using the TransScript First-Strand cDNA Synthesis SuperMix kit according to the manufacturer’s protocol (TransGen, Beijing, China), using the random primer method for the initiation of cDNA synthesis. Nuclease-free H2O replaced the RNA sample to serve as a negative control for the reverse transcription reaction. For qRT-PCR, 10 µL 2× TransStart Top Green qPCR SuperMix was added to each well of a 96-well PCR plate containing 0.4 µL forward primer, 0.4 µL reverse primer, […], and nuclease-free water to a total volume of 20 µL. The qRT-PCR reaction was completed using a CFX96 Real-Time PCR Detection System (Bio-Rad Laboratories, Hercules, CA, USA). Amplification used the following parameters: 94 °C for 30 s, followed by 40 cycles of 94 °C for 5 s, 55 °C for 15 s, 72 °C for 10 s, and then a dissociation stage (melt-curve). […]
# [5] = tested on: Eda-Fn1 mRNA; experiment: qRT-PCR Eda-Fn1 mRNA; format: cell-based, mouse
# Experimental: as §1
sequence,measurement,setting,value
VMPYISTTPAKPCTSENCGNSWYGGFKSKNENKIYFIN (disulfide 13-18 (inferred)) [AF38Pep],ITC interaction (thermogram),[1],not between AF38Pep and FN-RGD or COL-RGD
same,pro-MMP2 gelatinase activity,[2],suppressed activity levels
same,α-SMA protein expression (stress fibers),[3],inhibited
same,TGF-β1 mRNA expression,[4],attenuated
same,EDA-FN splice variant mRNA expression,"[5]; 72 h, TGF-β1 + AF38Pep",all inhibited
same,EDA-FN splice variant mRNA expression,"[5]; by 48 h, vs TGF-β1-only",significant attenuation
